Series [1] concerns the target T1, 5-hydroxytryptamine receptor 2C (Homo sapiens) (UniProt P28335).
T1 sequence (whole entry): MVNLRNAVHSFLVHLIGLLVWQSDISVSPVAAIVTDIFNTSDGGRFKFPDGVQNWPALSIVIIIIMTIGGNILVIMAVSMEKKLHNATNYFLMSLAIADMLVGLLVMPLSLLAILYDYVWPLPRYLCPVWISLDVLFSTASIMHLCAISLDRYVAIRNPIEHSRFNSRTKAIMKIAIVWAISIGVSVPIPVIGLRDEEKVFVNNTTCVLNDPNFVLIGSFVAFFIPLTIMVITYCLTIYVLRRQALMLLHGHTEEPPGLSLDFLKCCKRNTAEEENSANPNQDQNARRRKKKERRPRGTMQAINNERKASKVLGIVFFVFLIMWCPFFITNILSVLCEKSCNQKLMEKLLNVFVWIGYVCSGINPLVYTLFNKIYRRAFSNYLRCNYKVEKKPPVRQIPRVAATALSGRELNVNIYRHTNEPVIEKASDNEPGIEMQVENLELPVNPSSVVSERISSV
Kind of series: Binding affinity to human 5HT2C expressed in CHO cells. The class given is cell-based.

In series [2] the target is T2, Melatonin receptor type 1A (Homo sapiens, UniProt P48039). The experiment in a line: Displacement of 2-[125l]-lodomelatonin from human MT1 expressed in CHO cells incubated for 120 mins by radioligand binding assay. The format is cell-based.
T2 sequence (P48039 whole entry): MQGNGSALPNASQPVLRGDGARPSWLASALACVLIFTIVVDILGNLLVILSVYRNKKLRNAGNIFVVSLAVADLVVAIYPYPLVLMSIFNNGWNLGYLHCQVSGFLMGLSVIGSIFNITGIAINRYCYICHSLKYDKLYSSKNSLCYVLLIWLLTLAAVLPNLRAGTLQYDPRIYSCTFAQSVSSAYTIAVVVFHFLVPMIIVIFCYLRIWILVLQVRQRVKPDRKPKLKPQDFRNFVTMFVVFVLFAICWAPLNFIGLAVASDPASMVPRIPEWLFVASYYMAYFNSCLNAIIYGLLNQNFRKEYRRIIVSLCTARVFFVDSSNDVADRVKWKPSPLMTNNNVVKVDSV
The target in series [3] is T3, Melatonin receptor type 1B (Homo sapiens, UniProt P49286).
T3 sequence (P49286 whole entry): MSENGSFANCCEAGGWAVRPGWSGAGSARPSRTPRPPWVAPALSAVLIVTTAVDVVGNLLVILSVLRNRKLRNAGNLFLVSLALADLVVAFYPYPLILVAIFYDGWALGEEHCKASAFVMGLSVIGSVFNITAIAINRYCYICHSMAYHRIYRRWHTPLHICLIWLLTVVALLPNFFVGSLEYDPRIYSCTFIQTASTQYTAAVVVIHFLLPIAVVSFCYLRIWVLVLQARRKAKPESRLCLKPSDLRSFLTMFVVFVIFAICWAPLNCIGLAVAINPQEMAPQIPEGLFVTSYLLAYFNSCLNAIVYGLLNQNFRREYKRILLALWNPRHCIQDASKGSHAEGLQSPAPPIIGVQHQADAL
The experiment in a line: Displacement of 2-[125l]-lodomelatonin from human MT2 expressed in CHO cells incubated for 120 mins by radioligand binding assay. The format is cell-based.

The target in series [4] is T3, Melatonin receptor type 1B. The experiment in a line: Agonist activity at human MT2 expressed in CHO cell membrane incubated for 1 hr by [35S]GTPgammaS binding assay. The format is functional, cell membranes.
Series [5] deals with T2, Melatonin receptor type 1A. Kind of series: Agonist activity at human MT1 expressed in CHO cell membrane incubated for 1 hr by [35S]GTPgammaS binding assay. The class given is functional, cell membranes.
Series [6] can be described thus: Permeability in human Caco-2 cells. The class given is ADME, cell-based.
The nature of series [7]: Oral bioavailability in human. Conditions: in vivo. The class given is ADME, organism-based.
The nature of series [8]: Oral bioavailability in rat. Conditions: in vivo. The format is ADME, organism-based.

The results in this text go back to ChEMBL document CHEMBL4680188 (Eur J Med Chem, 2020).

SMILES strings stand for the structures. Calls of active or inactive are those of the source. The rule behind the calls is not given here.

With `COc1ccc2ncnc(N3CCN(C(=O)C4CC4)CC3)c2c1`, the result in series [1] was inactive. The figures for the Ki in series [2] and in series [3] were > 10 µM and 3.3 µM, respectively.

On to `COc1ccc2ncnc(CCNC(=O)C3CC3)c2c1`, for which the outcome in series [1] was inactive. The Ki in series [2] turned out to be 0.549 µM; in series [3], 0.398 µM.

Turning to `COc1ccc2cnnc(CCNC(C)=O)c2c1`, the EC50 in series [4] is 0.428 µM; in series [5], > 10 µM. For the same compound, the permeability in series [6] is listed as 2%. Besides, the outcome in series [1] was inactive. In addition, the Ki in series [2] stood at 2.11 µM; in series [3], 0.799 µM.

As for `CCC(=O)NCCc1ncnc2ccc(OC)cc12`, the EC50 in series [4] is 0.238 µM; in series [5], 0.432 µM. In addition, the outcome in series [1] was inactive. For the same compound, the Ki in series [2] turned out to be 0.21 µM; in series [3], 0.0411 µM.

In the case of `CCNC(=O)N1CCN(c2ncnc3ccc(OC)cc23)CC1`, in series [1], the outcome was inactive. The Ki is > 10 µM in series [2] and 2.8 µM in series [3].

For the compound `COc1ccc2ncnc(NCCNC(C)=O)c2c1`, the outcome in series [1] was inactive. In addition, the Ki in series [2] and in series [3] was > 10 µM in each case.

On to `CCCC(=O)NCCc1nncc2ccc(OC)cc12`, for which the EC50 in series [4] is 0.089 µM; in series [5], > 10 µM. Besides, the permeability in series [6] came out at 100%. In addition, in series [1], the result was inactive. In addition, the bioavailability turned out to be 36% in series [7] and 33% in series [8]. The results for the Ki in series [2] and in series [3] were 1.14 µM and 0.108 µM, respectively.

For the compound `CCCC(=O)NCCc1ncnc2ccc(OC)cc12`, the values for the EC50 in series [4] and in series [5] were 0.219 µM and 0.652 µM, respectively. Besides, the outcome in series [1] was inactive. Also, the bioavailability in series [7] was found to be 36%; in series [8], 69%. Besides, the Ki in series [2] was determined as 0.32 µM; in series [3], 0.041 µM.

As for `COc1ccc2ncnc(CCNC(C)=O)c2c1`, the figures for the EC50 in series [4] and in series [5] were 0.835 µM and 2.6 µM, respectively. In addition, the permeability in series [6] was determined as 100%. Also, the result in series [1] was inactive. For the same compound, the figures for the bioavailability in series [7] and in series [8] were 97% and 92%, respectively. Besides, the Ki in series [2] amounted to 0.23 µM; in series [3], 0.115 µM.

Compound `COc1ccc2cccc(CCNC(C)=O)c2c1` [AGOMELATINE] gave a permeability in series [6] of 100%. Further, the bioavailability amounted to 11% in series [7] and 13% in series [8].

In the case of `CCC(=O)NCCc1nncc2ccc(OC)cc12`, the values for the EC50 in series [4] and in series [5] were 0.327 µM and > 10 µM, respectively. Besides, the permeability in series [6] is 100%. The outcome in series [1] was inactive. The bioavailability in series [7] stood at 46%; in series [8], 54%. Also, the Ki in series [2] amounted to 1.47 µM; in series [3], 0.414 µM.

Take `COc1ccc2nc(-c3ccccc3)nc(CCNC(C)=O)c2c1`: the EC50 in series [4] is 0.237 µM; in series [5] it was > 10 µM. Besides, in series [6], the permeability worked out at 100%. Also, the outcome in series [1] was inactive. Besides, the bioavailability in series [7] came to 7%; in series [8] it was 2%. Also, the Ki in series [2] came out at 0.896 µM; in series [3] it was 0.0156 µM.

With `COc1ccc2cnnc(CCNC(=O)C3CC3)c2c1`, the EC50 in series [4] was 1.25 µM; in series [5], > 10 µM. Moreover, in series [1], the outcome was inactive. The figures for the Ki in series [2] and in series [3] were 3.02 µM and 1.37 µM, respectively.

For the compound `COc1cccc(-c2nc(CCNC(C)=O)c3cc(OC)ccc3n2)c1`, the EC50 is 0.543 µM in series [4] and 0.321 µM in series [5]. Besides, the result in series [1] was inactive. Further, the results for the Ki in series [2] and in series [3] were 0.5 µM and 0.046 µM, respectively.
